Assay results taken from patent US10266577B2, “GLP-1 derivatives, and uses thereof” (Novo Nordisk A/S, priority 2013, dated 2019).
Square brackets hold non-standard residues; d marks the D form. Side chains are listed from the residue outwards. Peptide text beside a SMILES is read from it. * marks the point of attachment. Hexadecanoyl(16-SO3H) = O=C(CCCCCCCCCCCCCCCS(=O)(=O)O)*; Cya = N[C@@H](CS(=O)(=O)O)C(=O)O; AEEA = NCCOCCOCC(=O)O; Aib = CC(C)(N)C(=O)O

Experiment: in vivo
Details: male, Göttingen, minipig, iv
Method: The purpose of this study is to determine the protraction in vivo of the GLP-1 derivatives after i.v. administration to minipigs, i.e. the prolongation of their time in the body and thereby their time of action. This is done in a pharmacokinetic (PK) study, where the terminal half-life of the derivative in question is determined. By terminal half-life is meant the time it takes to halve a certain plasma concentration in the terminal elimination phase.
Male Göttingen minipigs were obtained from Ellegaard Göttingen Minipigs (Dalmose, Denmark) approximately 7-14 months of age and weighing approximately 16-35 kg were used in the studies. The minipigs were housed either individually (pigs with permanent catheters) or in a group and fed restrictedly once or twice daily with SDS minipig diet (Special Diets Services, Essex, UK).
After at least 2 weeks of acclimatisation two permanent central venous catheters were implanted in vena cava caudalis or cranialis in each animal. The animals were allowed 1 week recovery after the surgery, and were then used for repeated pharmacokinetic studies with a suitable wash-out period between successive GLP-1 derivative dosings.
Blood samples (for example 0.8 ml) were collected in EDTA buffer (8 mM) and then centrifuged at 4° C. and 1942G for 10 minutes.
Plasma was pipetted into Micronic tubes on dry ice, and kept at −20° C. until analysed for plasma concentration of the respective GLP-1 compound using LOCI. Individual plasma concentration-time profiles were analyzed by a non-compartmental pharmacokinetic method in Phoenix v. 6.2 (Pharsight Inc., Mountain View, Calif., USA), or other relevant software for PK analysis, and the resulting terminal half-lives (harmonic mean) determined.

| half-life | Structure (SMILES) |
| --- | --- |
| 140 h | CC[C@H](C)[C@H](NC(=O)[C@H](Cc1ccccc1)NC(=O)[C@H](CCC(=O)O)NC(=O)[C@H](CCCNC(=N)N)NC(=O)[C@H](C)NC(=O)[C@H](C)NC(=O)[C@H](CCC(N)=O)NC(=O)[C@H](CCCCNC(=O)COCCOCCNC(=O)COCCOCCNC(=O)[C@H](CS(=O)(=O)O)NC(=O)CCCCCCCCCCCCCCCS(=O)(=O)O)NC(=O)[C@H](CCC(=O)O)NC(=O)[C@H](CC(C)C)NC(=O)[C@H](Cc1ccc(O)cc1)NC(=O)[C@H](CCCCNC(=O)COCCOCCNC(=O)COCCOCCNC(=O)[C@H](CS(=O)(=O)O)NC(=O)CCCCCCCCCCCCCCCS(=O)(=O)O)NC(=O)[C@H](CO)NC(=O)[C@@H](NC(=O)[C@H](CC(=O)O)NC(=O)[C@H](CO)NC(=O)[C@@H](NC(=O)[C@H](Cc1ccccc1)NC(=O)[C@@H](NC(=O)CNC(=O)[C@H](CCC(=O)O)NC(=O)C(C)(C)NC(=O)[C@@H](N)Cc1c[nH]cn1)[C@@H](C)O)[C@@H](C)O)C(C)C)C(=O)N[C@@H](CCCCNC(=O)COCCOCCNC(=O)COCCOCCNC(=O)[C@H](CS(=O)(=O)O)NC(=O)CCCCCCCCCCCCCCCS(=O)(=O)O)C(=O)N[C@@H](Cc1c[nH]c2ccccc12)C(=O)N[C@@H](CC(C)C)C(=O)N[C@H](C(=O)N[C@@H](CCCNC(=N)N)C(=O)NCC(=O)N[C@@H](CCCNC(=N)N)C(=O)NCC(=O)O)C(C)C [Example 2] (H-H[Aib]EGTFTSDVSK([AEEA-AEEA-Cya-Hexadecanoyl(16-SO3H)])YLEK([AEEA-AEEA-Cya-Hexadecanoyl(16-SO3H)])QAAREFIK([AEEA-AEEA-Cya-Hexadecanoyl(16-SO3H)])WLVRGRG-OH; N-terminus and C-terminus assumed) |
| 120 h | CC[C@H](C)[C@H](NC(=O)[C@H](Cc1ccccc1)NC(=O)[C@H](CCC(=O)O)NC(=O)[C@H](CCCCNC(=O)[C@@H](N)CCCCNC(=O)[C@H](CO)NC(=O)[C@H](CO)NC(=O)[C@H](CO)NC(=O)[C@H](CO)NC(=O)[C@H](CO)NC(=O)CC[C@H](NC(=O)CCCCCCCCCCCCCCCCC(=O)O)C(=O)O)NC(=O)[C@H](C)NC(=O)[C@H](C)NC(=O)[C@H](CCC(N)=O)NC(=O)CNC(=O)[C@H](CCC(=O)O)NC(=O)[C@H](CC(C)C)NC(=O)[C@H](Cc1ccc(O)cc1)NC(=O)[C@H](CCCCNC(=O)[C@@H](N)CCCCNC(=O)[C@H](CO)NC(=O)[C@H](CO)NC(=O)[C@H](CO)NC(=O)[C@H](CO)NC(=O)[C@H](CO)NC(=O)CC[C@H](NC(=O)CCCCCCCCCCCCCCCCC(=O)O)C(=O)O)NC(=O)[C@H](CO)NC(=O)[C@@H](NC(=O)[C@H](CC(=O)O)NC(=O)[C@H](CO)NC(=O)[C@@H](NC(=O)[C@H](Cc1ccccc1)NC(=O)[C@@H](NC(=O)CNC(=O)[C@H](CCC(=O)O)NC(=O)C(C)(C)NC(=O)[C@@H](N)Cc1c[nH]cn1)[C@@H](C)O)[C@@H](C)O)C(C)C)C(=O)N[C@@H](C)C(=O)N[C@@H](Cc1c[nH]c2ccccc12)C(=O)N[C@@H](CC(C)C)C(=O)N[C@H](C(=O)N[C@@H](CCCNC(=N)N)C(=O)NCC(=O)N[C@@H](CCCNC(=N)N)C(=O)N[C@@H](CCCCNC(=O)[C@@H](N)CCCCNC(=O)[C@H](CO)NC(=O)[C@H](CO)NC(=O)[C@H](CO)NC(=O)[C@H](CO)NC(=O)[C@H](CO)NC(=O)CC[C@H](NC(=O)CCCCCCCCCCCCCCCCC(=O)O)C(=O)O)C(=O)O)C(C)C [Example 3] |
